Results from patent USRE37180E, “Photochemotherapeutical obstruction of newly-formed blood vessels” (Meiji Seika Kaisha, Ltd., priority 1995, dated 2001).
Counter-ions that a name gives are not always drawn.

Experiments:
[1] = tested on: active lesions of the neovascular tissues; assay: accumulation in neovascular tissues; settings: in vivo
[2] = cited from earlier work
[3] = acute toxicity tested by intravenous injection to CD-1 mice (male); settings: mouse, in vivo
serum albumin = assay: affinity to the serum albumin; format: binding
photo-toxicity tests = format: in vivo
[4] = tested on: choroidal neovascularization; assay: occlusion of choroidal neovascularization upon irradiation with laser beam; format: in vivo; settings: irradiation with a laser beam at 664 nm
[5] = liposolubility / penetration into normal tissues; format: physicochemical
light absorption = format: physicochemical; settings: can absorb well
in vivo cells = assay: transfer into the in vivo cells; settings: not by diffusion
choroidal vessels = format: in vivo, normal pigmented rabbits
Description: The predetermined regions (that is, said spots) of the blood vessels to be irradiated with the laser beam had been marked preliminarily by photo-coagulation by means of an argon laser beam. Immediately after the irradiation with the laser at 664 nm, as well as one week after the irradiation and one month after the irradiation with the laser at 664 nm, the fundus of the eyes under test was examined by fluorescein angiography.
The eye so treated was subsequently observed under light microscope at the end of 2 hours after the laser irradiation.
The laser-irradiated parts of the eye so treated were subsequently observed under light microscope at the end of 1 hour after the laser irradiation.

[6] = metabolic speed and level in the blood plasma; format: in vivo
[7] = design: species or system normal pigmented rabbits; settings: rabbit, in vivo

C=Cc1c(C)c2cc3nc(c(CC(=O)N[C@@H](CC(=O)O)C(=O)O)c4[nH]c(cc5nc(cc1[nH]2)C(C)=C5CC)c(C)c4C(=O)O)[C@@H](CCC(=O)O)[C@@H]3C [mono-L-aspartyl chlorin e6 tetra-sodium salt]
accumulation in the active lesions of the neovascular tissues [1]: can concentrate into and be accumulated well in the active lesions of the neovascular tissues
uptake into and excretion from the human and animal body [2]: quickly uptaken into and excreted from the human and animal body
LD50 [3]: 164 mg/kg
affinity to the serum albumin (serum albumin): has a nature of exhibiting affinity to the serum albumin
adverse side reactions such as erythema and edema (photo-toxicity tests): does not involve adverse side reactions such as erythema and edema
necrosis of the vascular endothelial cells and occlusion of choroidal neovascularization [4]: cause necrosis of the vascular endothelial cells and occlusion of choroidal neovascularization
liposolubility [5]: low liposolubility
penetration and diffusion into healthy normal tissues having the barrier in vivo [5]: hard to penetrate and diffuse into the healthy normal tissues having the barrier in vivo
light absorption wavelength (light absorption): 664 nm
mode of transfer into the in vivo cells (in vivo cells): by the phagocytosis and/or pinocytosis
obstruction of choroidal blood vessels (choriocapillaris) maintained, light microscope (choroidal vessels; 25 mg/kg i.v., laser immediately after injection, 1 hour after irradiation): the choroidal blood vessels, more particularly the choriocapillaris continued to have been obstructed
endothelial cells of the chorio-capillaris / choriocapillaris, light microscope (choroidal vessels; 25 mg/kg i.v., laser immediately after injection, 2 hours after irradiation): endothelial cells of the chorio-capillaris had been swollen and necrotized and the choriocapillaris were obstructed
extent of damages incurred in the choroidal vessels, laser one hour after versus immediately after injection (choroidal vessels; 25 mg/kg i.v., observed commonly for all the doses): the extent of damages incurred in the choroidal vessels is reduced at the laser irradiation as made one hour after the intravenous injection
degree of obstruction of choroidal vessels compared with argon laser photo-coagulation (choroidal vessels; 25 mg/kg, laser immediately after administration, one week after irradiation, light microscope): the choroidal vessels were obstructed to a substantially same degree in the former case and the latter case
obstruction in the choroidal vessels (choroidal vessels; 25, 50 and 100 mg/kg i.v., 664 nm laser immediately after injection, fluorescein angiography one week after irradiation): the obstruction took place in the choroidal vessels at all the doses
degree of the obstruction in the choroidal vessels, dose dependence (choroidal vessels; 25, 50 and 100 mg/kg i.v., laser immediately after injection, one week after irradiation): the degree of the obstruction in the choroidal vessels increased with an increased doses
level in the blood plasma ([6]; at the end of 10 hours from the administration): 1/500
metabolic speed relative to photofrin ([6]; faster than photofrin): at least 10 times
level in the blood after the administration [7]: can decrease quickly during an earlier period after the administration
metabolism after administration into a human or animal body [7]: can be metabolized well after its administration into a human or animal body
